These are literature values, as cited in US20250241850A1, “BIOADHESIVE NASAL SPRAY COMPOSITION, PREPARATION METHOD AND USE” (Eurofarma Laboratórios S.A., priority 2022, published 2025).

Where a name gives a salt, the structure may show the parent alone.

The conditions of the series: in vivo.

As to `CN1C2CCCC1CC(NC(=O)c1nn(C)c3ccccc13)C2` (stereo not shown) [Granisetron hydrochloride], the half-life is 3 to 4 h.
